Laboratory results as given in paper PMC3914206.

How the values were obtained:
Type in all cases: binding
Details in all cases: Compound Concentration 10 µM
panel of 442 kinases [1] = target: T1, panel of 442 kinases (Homo sapiens, UniProt P49840)
T1 construct: purchased KINOMEscan
Description: (§1) We assessed the selectivity of members of this scaffold using the KINOMEscan methodology across a near comprehensive panel of 442 kinases [[18,27]].

panel of 442 kinases [2] = target: T2, panel of 442 kinases (Homo sapiens, UniProt O14578)
T2 construct: purchased KINOMEscan
Description: as §1

panel of 442 kinases [3] = target: T3, panel of 442 kinases (Homo sapiens, UniProt P78356)
T3 construct: purchased KINOMEscan
T3 sequence (P78356 1-416): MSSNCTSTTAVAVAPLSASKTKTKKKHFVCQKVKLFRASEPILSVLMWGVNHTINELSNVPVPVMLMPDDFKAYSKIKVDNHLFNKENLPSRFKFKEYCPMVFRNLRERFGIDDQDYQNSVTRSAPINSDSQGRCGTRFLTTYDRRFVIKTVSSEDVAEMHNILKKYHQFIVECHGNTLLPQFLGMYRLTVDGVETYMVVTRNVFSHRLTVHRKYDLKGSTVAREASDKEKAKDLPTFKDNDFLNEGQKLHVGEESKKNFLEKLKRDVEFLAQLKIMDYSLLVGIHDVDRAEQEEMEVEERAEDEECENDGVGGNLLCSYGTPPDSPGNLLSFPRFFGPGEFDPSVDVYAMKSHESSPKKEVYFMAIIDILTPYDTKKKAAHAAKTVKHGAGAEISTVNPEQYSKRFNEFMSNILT
Description: as §1

T2 sequence (O14578 whole entry): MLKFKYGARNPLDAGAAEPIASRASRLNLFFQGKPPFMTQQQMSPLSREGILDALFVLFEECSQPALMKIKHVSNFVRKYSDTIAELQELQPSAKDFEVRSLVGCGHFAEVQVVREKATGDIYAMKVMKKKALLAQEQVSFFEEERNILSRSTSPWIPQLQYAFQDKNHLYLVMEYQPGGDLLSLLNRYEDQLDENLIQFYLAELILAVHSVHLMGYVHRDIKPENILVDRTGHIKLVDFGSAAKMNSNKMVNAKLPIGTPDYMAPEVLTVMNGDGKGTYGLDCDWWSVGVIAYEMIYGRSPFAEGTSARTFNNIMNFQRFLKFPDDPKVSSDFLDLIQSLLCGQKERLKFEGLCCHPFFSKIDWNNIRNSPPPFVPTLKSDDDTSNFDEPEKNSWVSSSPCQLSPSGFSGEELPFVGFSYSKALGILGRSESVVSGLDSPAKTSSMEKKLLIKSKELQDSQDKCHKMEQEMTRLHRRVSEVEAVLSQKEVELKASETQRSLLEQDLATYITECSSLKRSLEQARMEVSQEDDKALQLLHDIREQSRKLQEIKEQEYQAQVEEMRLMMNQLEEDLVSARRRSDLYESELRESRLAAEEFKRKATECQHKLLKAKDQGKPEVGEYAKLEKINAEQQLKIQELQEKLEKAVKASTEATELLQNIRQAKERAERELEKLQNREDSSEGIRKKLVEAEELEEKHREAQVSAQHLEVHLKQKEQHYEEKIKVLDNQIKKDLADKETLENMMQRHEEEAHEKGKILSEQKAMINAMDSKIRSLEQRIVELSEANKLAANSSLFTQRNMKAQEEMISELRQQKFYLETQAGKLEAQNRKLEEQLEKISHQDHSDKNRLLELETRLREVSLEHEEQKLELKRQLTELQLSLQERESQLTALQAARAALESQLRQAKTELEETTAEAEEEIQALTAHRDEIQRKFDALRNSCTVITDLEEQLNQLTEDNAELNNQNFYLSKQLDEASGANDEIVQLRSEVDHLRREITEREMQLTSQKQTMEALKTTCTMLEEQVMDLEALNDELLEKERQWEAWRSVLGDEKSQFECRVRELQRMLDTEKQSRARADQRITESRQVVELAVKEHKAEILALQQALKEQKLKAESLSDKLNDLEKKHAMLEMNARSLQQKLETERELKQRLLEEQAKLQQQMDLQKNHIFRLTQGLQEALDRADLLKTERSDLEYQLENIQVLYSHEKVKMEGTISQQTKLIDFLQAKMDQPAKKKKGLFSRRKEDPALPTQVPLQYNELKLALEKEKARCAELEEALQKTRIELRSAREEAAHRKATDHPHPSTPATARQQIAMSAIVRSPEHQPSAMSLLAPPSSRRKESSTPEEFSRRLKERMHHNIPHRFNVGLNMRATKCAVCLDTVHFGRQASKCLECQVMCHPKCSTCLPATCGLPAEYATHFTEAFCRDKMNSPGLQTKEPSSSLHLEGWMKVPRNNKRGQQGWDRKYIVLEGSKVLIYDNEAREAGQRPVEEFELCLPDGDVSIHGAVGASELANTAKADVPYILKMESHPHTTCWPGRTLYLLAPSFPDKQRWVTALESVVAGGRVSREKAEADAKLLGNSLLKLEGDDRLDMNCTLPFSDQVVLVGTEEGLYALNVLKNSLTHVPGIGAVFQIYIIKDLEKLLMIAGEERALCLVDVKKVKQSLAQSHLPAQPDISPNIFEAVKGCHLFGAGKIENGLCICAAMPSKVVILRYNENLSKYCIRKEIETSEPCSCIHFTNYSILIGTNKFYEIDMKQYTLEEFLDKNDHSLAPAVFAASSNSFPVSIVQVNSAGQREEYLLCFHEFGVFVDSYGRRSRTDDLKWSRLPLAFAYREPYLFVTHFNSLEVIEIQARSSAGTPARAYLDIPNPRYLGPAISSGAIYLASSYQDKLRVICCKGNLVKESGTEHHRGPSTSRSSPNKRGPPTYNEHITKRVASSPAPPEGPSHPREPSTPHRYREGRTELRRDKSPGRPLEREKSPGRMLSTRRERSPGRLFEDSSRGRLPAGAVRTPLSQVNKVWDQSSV
T1 sequence (P49840 whole entry): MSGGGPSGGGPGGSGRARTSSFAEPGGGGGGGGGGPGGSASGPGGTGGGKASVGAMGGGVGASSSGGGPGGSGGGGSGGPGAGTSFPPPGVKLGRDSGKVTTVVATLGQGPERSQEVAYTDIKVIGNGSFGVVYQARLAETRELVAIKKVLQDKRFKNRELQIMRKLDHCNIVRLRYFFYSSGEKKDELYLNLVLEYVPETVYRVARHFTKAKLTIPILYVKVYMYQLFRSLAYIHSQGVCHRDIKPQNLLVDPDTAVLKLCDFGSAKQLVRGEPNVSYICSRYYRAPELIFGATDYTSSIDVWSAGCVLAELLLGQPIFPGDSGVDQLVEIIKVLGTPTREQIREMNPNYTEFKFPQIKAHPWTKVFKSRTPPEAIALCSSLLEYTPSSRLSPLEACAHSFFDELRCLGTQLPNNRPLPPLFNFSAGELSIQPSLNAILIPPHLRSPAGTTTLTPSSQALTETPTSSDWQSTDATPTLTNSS

SMILES | KINOMEscan: GSK3A (panel of 442 kinases [1]) | KINOMEscan: CIT (panel of 442 kinases [2]) | KINOMEscan: PIP5K2B (panel of 442 kinases [3])
COc1cc(C(=O)N2CCC(N3CCN(C)CC3)CC2)ccc1Nc1ncc2c(n1)N(C1CCCC1)c1ccccc1C(=O)N2C [Compound 25, 11-cyclopentyl-2-((2-methoxy-4-(4-(4-methylpiperazin-1-yl)piperidine-1-carbonyl)phenyl)amino)-5-methyl-5H-benzo[e]pyrimido[5,4-b][1,4]diazepin-6(11H)-one] | 100 | 66 | 100
COc1cc(C(=O)N2CCC(N3CCN(C)CC3)CC2)ccc1Nc1ncc2c(n1)N1CCc3cccc(c31)C(=O)N2C [Compound 24] | – | 1.5 | –
COc1cc(C(=O)N2CCC(N3CCN(C)CC3)CC2)ccc1Nc1ncc2c(n1)N(C)c1ccccc1C(=O)N2C [15 (LRRK2-IN-1)] | 100 | 99 | 100
CCOc1cc(C(=O)N2CCC(N3CCN(C)CC3)CC2)ccc1Nc1ncc2c(n1)N(C1CCCC1)c1ccccc1C(=O)N2C [Compound 26] | 100 | 98 | 100
